Assay results reported in EP1020526B1, “Process for producing L-Threonine by fermentation” (priority 1992, dated 1994).
Values after ≈ are worked out from the molar mass of the structure shown.

Experiments:
[1] = molecular target: T1, Escherichia coli aspartokinase III (AK III, lysC), wild type, SEQ ID NO: 1 (Escherichia coli, UniProt P08660); experiment: Aspartokinase (AK III) activity, lysine-dependent inhibition, crude enzyme, hydroxamate method of Stadtman et al.; type: biochemical
T1 construct: made in house; host or cells: E. coli GT3 (lacks AK I, II and III) carrying pLYSC1; cell-free extract, ammonium sulfate fraction
T1 sequence (P08660 2-449): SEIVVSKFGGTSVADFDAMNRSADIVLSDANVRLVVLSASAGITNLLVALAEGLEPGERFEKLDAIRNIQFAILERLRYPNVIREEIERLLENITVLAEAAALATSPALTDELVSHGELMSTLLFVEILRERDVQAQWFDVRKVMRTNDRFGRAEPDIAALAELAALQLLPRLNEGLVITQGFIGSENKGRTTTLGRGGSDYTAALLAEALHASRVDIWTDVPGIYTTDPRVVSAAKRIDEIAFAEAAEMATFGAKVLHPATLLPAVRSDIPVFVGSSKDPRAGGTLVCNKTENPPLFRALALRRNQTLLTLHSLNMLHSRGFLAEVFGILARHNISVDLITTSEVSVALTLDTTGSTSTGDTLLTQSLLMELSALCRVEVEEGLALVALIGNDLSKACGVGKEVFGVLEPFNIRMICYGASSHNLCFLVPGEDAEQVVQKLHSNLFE
Method: (§1) A completely AK-deficient GT3 strain was used as the host in respect of which the above mentioned 14 mutant pLYSC1's (named the pLYSC1* series) and wild pLYSC1 plasmids were respectively used for transformation, after which a cell-free extract was prepared from the transformants and the enzyme activity of AK III was measured. The method for the measurement of the enzyme activity was as follows.
(§2) • (1) Culturing of cells in 2 x TY medium, followed by cell collection at O.D. 660 nm = approx. 0.8. • (2) Washing with 0.02 M KH2PO4 (pH 6.75) - 0.03 M β mercaptoethanol at 0°C. • (3) Sonic crushing of cells (0°C, 100 W, 30 sec x 4 times). • (4) Centrifugation at 0°C, 33 krpm for 1 hour, followed by addition of ammonium sulfate to supernatant to 80% saturation. • (5) Centrifugation, followed by dissolution of pellets in buffer of (2), and preservation (-20°C).
(§3) The method of measuring the enzyme activity was according to the method of Stadtman, et al. (Stadtman, E.R., Cohen, G.N., Lebras, G. and Robichon-Szulmajster, H., J. Biol. Chem., 236, 2033, 1961).
(§4) Table 5: Reaction solution composition
(§5) The measurement method is outlined in Table 6 below. Table 6: Outline of measurement method
(§6) For the measurement of the enzyme activity of AK, lysine was added to the enzyme reaction solutions at various concentrations, and the levels of lysine-dependent inhibition were determined.
(§7) In Table 7, the inhibition release is presented as the activity (%) in the presence of 100 mM of lysine with respect to the activity of a lysine-free reaction solution, and the thermal stability is presented as the maintenance of activity (%) after treatment at 55°C for 1.5 hours with respect to the activity without heating. Table 7: Inhibition release by lysine and thermal stability

[2] = molecular target: T2, Escherichia coli aspartokinase III (AK III) mutant lysC* No. 117, 345 Ser→Leu (Escherichia coli, UniProt P08660, S345L); experiment: Aspartokinase (AK III) activity, lysine-dependent inhibition; type: biochemical
T2 construct: made in house; host or cells: E. coli GT3 carrying mutant pLYSC1*; cell-free extract
T2 sequence (P08660 2-449 S345L): as the sequence (P08660 2-449) above, with S344L counted along it
Method: as §1, §2, §3, §4, §5, §6, §7

[3] = molecular target: T3, Escherichia coli aspartokinase III (AK III) mutant lysC* No. 149, 34 Arg→Cys, 323 Gly→Asp (Escherichia coli, UniProt P08660, G323D/R34C); experiment: as above; type: biochemical; conditions: activity in the presence of 100 mM of lysine with respect to lysine-free reaction solution
T3 construct: made in house; host or cells: E. coli GT3 carrying mutant pLYSC1*; cell-free extract
T3 sequence (P08660 2-449 R34C/G323D): as the sequence (P08660 2-449) above, with R33C, G322D counted along it
Method: as §1, §2, §3, §4, §5, §6, §7

[4] = molecular target: T4, Escherichia coli aspartokinase III (AK III) mutant lysC* No. 169, 352 Thr→Ile, 369 Ser→Phe (Escherichia coli, UniProt P08660, S369F/T352I); experiment: as above; type: biochemical
T4 construct: made in house; host or cells: E. coli GT3 carrying mutant pLYSC1*; cell-free extract
T4 sequence (P08660 2-449 T352I/S369F): as the sequence (P08660 2-449) above, with T351I, S368F counted along it
Method: as §1, §2, §3, §4, §5, §6, §7

[5] = molecular target: T5, Escherichia coli aspartokinase III (AK III) mutant lysC* No. 172, 318 Met→Ile, 349 Val→Met (Escherichia coli, UniProt P08660, M318I/V349M); experiment: as above; type: biochemical
T5 construct: made in house; host or cells: E. coli GT3 carrying mutant pLYSC1*; cell-free extract
T5 sequence (P08660 2-449 M318I/V349M): as the sequence (P08660 2-449) above, with M317I, V348M counted along it
Method: as §1, §2, §3, §4, §5, §6, §7

[6] = molecular target: T6, Escherichia coli aspartokinase III (AK III) mutant lysC* No. 24, 352 Thr→Ile (Escherichia coli, UniProt P08660, T352I); experiment: as above; type: biochemical
T6 construct: made in house; host or cells: E. coli GT3 carrying mutant pLYSC1*; cell-free extract
T6 sequence (P08660 2-449 T352I): as the sequence (P08660 2-449) above, with T351I counted along it
Method: as §1, §2, §3, §4, §5, §6, §7

[7] = molecular target: T7, Escherichia coli aspartokinase III (AK III) mutant lysC* No. 80, 352 Thr→Ile (Escherichia coli, UniProt P08660, T352I); experiment: as above; type: biochemical
T7 construct: made in house; host or cells: E. coli GT3 carrying mutant pLYSC1*; cell-free extract
T7 sequence (P08660 2-449 T352I): as the sequence (P08660 2-449) above, with T351I counted along it
Method: as §1, §2, §3, §4, §5, §6, §7

GT3/pLYSC1 = experiment: Growth of completely AK-deficient GT3 strain possessing lysC plasmid on M9 minimal agar with added lysine or AEC; for Growth: key: +: growth; ±: some growth; -: no growth; type: cell-based, E. coli; conditions: for growth: M9 agar medium, 37°C, 2 day culturing; for MIC: Escherichia coli, GT3, M9 minimal agar plate medium, read-out: concentration at which growth was completely inhibited
Method: (§8) First, pLYSC1 and pLYSC2 were each incorporated into E. coli GT3 for its transformation to obtain two different transformants, and culturing was effected on an M9 minimal agar plate medium containing lysine or AEC. Also, the growth inhibition concentration of lysine or AEC was determined, and the conditions for selection of lysC* were investigated.

GT3/pLYSC2 = experiment: as above; type: cell-based, E. coli; conditions: M9 agar medium, 37°C, 2 day culturing; note: key: +: growth; ±: some growth; -: no growth
Method: as §8

[8] = lysine, compared with wild type AK III

NCCCC[C@H](N)C(=O)O [lysine]
IC50 [1]: ~450 µM
inhibition at 5000 µM ([1]; 5 mM of lysine): ~100%
activity at 100000 µM ([1]; activity in the presence of 100 mM of lysine with respect to lysine-free reaction solution, read-out: Inhibition release (%)): 0%
inhibition ([2]; 100 mM of lysine): practically no inhibition
50% inhibition concentration (fold) [2, 8]: ≥ 200 fold
Inhibition release (%) [3]: 59%
inhibition ([4]; 100 mM of lysine): practically no inhibition
50% inhibition concentration (fold) [4, 8]: ≥ 200 fold
inhibition ([5]; 100 mM of lysine): practically no inhibition
50% inhibition concentration (fold) [5, 8]: ≥ 200 fold
inhibition ([6]; 100 mM of lysine): practically no inhibition
50% inhibition concentration (fold) [6, 8]: ≥ 200 fold
inhibition ([7]; 100 mM of lysine): practically no inhibition
50% inhibition concentration (fold) [7, 8]: ≥ 200 fold
growth (GT3/pLYSC1; 0.2 mM added): -
growth (GT3/pLYSC1; 0.4 mM added): -
growth (GT3/pLYSC1; 0.8 mM added): -
growth (GT3/pLYSC1; 1.5 mM added): -
growth (GT3/pLYSC1; 3 mM added): -
growth (GT3/pLYSC1; 6 mM added): -
growth (GT3/pLYSC1; 12 mM added): -
growth (GT3/pLYSC1; 25 mM added): -
growth (GT3/pLYSC1; 50 mM added): -
growth (GT3/pLYSC1; 100 mM added): -
growth (GT3/pLYSC1; 200 mM added): -
MIC (GT3/pLYSC1): ~200 µM (≈ 29.2 µg/mL)
growth (GT3/pLYSC2; 0.2 mM added): +
growth (GT3/pLYSC2; 0.4 mM added): +
growth (GT3/pLYSC2; 0.8 mM added): +
growth (GT3/pLYSC2; 1.5 mM added): +
growth (GT3/pLYSC2; 3 mM added): +
growth (GT3/pLYSC2; 6 mM added): +
growth (GT3/pLYSC2; 12 mM added): +
growth (GT3/pLYSC2; 25 mM added): +
growth (GT3/pLYSC2; 50 mM added): +
growth (GT3/pLYSC2; 100 mM added): ±
growth (GT3/pLYSC2; 200 mM added): -

NCCSC[C@H](N)C(=O)O [AEC, S-2-aminoethylcysteine, reference compound]
growth (GT3/pLYSC1; 0.2 mM added): -
growth (GT3/pLYSC1; 0.4 mM added): -
growth (GT3/pLYSC1; 0.8 mM added): -
growth (GT3/pLYSC1; 1.5 mM added): -
growth (GT3/pLYSC1; 3 mM added): -
growth (GT3/pLYSC1; 6 mM added): -
growth (GT3/pLYSC1; 12 mM added): -
growth (GT3/pLYSC1; 25 mM added): -
growth (GT3/pLYSC1; 50 mM added): -
MIC (GT3/pLYSC1): ~200 µM (≈ 32.8 µg/mL)
growth (GT3/pLYSC2; 0.2 mM added): ±
growth (GT3/pLYSC2; 0.4 mM added): ±
growth (GT3/pLYSC2; 0.8 mM added): ±
growth (GT3/pLYSC2; 1.5 mM added): ±
growth (GT3/pLYSC2; 3 mM added): ±
growth (GT3/pLYSC2; 6 mM added): -
growth (GT3/pLYSC2; 12 mM added): -
growth (GT3/pLYSC2; 25 mM added): -
growth (GT3/pLYSC2; 50 mM added): -
